Laboratory results as given in US20060094068A1, “Predictive markers in cancer therapy” (priority 2002, published 2006).
“Also recorded” adds a separate entry of the source.

What was measured:
AKT [1] = assay: p-AKT in HN5 tumor xenografts (Western blot); assay type: in vivo, CD-1 nude mice
Procedure: (§1) HN5 cells were grown in DMEM supplemented with 10% fetal bovine serum, sodium pyruvate and L-glutamine at 37° C. in a 95/5% air/CO2 atmosphere. […] Cells (2×10^6/mouse) in 0.2 ml were injected into the right flank of CD-1 nude mice. Female CD-1 nude mice were acquired from Charles River Laboratories. Mice were maintained in filter-topped cages in an aseptic environment with laminar flow filtered ventilation. […] Tumors were biopsied pre-treatment and 4 hours after the last dose. All animal surgery was conducted under aseptic conditions. For the initial biopsy, mice were anesthetized with isofluorane inhalation. The skin over the tumor was disinfected with iodine. A small hemostat was used to tease away the skin from the tumor, and scissors were used to make a 1 cm incision over the tumor. A scalpel and forceps were used to remove approximately 100 mg of tumor. The tumor was then frozen in liquid nitrogen. Wound clips were used to close the incision. The anesthetized mice were kept warm until they recovered mobility, usually less than 1-2 minutes. For the terminal biopsy, mice were euthanized with CO2 inhalation, and the remainder of the tumor excised. HN5 tumors were placed on dry ice in vials containing cold isopentane, nd stored at −80° C. prior to study. […]

HN5 cells [2] = conditions: cited from earlier work
Erk1/2 [3] = assay: p-Erk1/2 in HN5 tumor xenografts (Western blot); assay type: in vivo, CD-1 nude mice
Procedure: as §1

AKT [4] = assay: AKT phosphorylation in S1 cells; assay type: cell-based, human
Erk1/2 [5] = assay: Clinical trial, localisation of total Erk1/2 in tumor biopsies (IHC); conditions: patient 361, day 21; before treatment nuclear
From the text: Erk1/2 (1:1200), erbB3 (1:10), heregulin (1:25), and TGFα (1:20) were also immunostained using the BenchMark™ with I-VIEW detection chemistry.

erbB2 [6] = target: T1, erbB2 (Homo sapiens, UniProt P04626); assay: EGF stimulation experiment, p-Tyr/erbB2 in BT474 cells; conditions: 1 μM, 24 h, serum-free, with or without EGF 50 ng/ml
T1 sequence (P04626 23-1255): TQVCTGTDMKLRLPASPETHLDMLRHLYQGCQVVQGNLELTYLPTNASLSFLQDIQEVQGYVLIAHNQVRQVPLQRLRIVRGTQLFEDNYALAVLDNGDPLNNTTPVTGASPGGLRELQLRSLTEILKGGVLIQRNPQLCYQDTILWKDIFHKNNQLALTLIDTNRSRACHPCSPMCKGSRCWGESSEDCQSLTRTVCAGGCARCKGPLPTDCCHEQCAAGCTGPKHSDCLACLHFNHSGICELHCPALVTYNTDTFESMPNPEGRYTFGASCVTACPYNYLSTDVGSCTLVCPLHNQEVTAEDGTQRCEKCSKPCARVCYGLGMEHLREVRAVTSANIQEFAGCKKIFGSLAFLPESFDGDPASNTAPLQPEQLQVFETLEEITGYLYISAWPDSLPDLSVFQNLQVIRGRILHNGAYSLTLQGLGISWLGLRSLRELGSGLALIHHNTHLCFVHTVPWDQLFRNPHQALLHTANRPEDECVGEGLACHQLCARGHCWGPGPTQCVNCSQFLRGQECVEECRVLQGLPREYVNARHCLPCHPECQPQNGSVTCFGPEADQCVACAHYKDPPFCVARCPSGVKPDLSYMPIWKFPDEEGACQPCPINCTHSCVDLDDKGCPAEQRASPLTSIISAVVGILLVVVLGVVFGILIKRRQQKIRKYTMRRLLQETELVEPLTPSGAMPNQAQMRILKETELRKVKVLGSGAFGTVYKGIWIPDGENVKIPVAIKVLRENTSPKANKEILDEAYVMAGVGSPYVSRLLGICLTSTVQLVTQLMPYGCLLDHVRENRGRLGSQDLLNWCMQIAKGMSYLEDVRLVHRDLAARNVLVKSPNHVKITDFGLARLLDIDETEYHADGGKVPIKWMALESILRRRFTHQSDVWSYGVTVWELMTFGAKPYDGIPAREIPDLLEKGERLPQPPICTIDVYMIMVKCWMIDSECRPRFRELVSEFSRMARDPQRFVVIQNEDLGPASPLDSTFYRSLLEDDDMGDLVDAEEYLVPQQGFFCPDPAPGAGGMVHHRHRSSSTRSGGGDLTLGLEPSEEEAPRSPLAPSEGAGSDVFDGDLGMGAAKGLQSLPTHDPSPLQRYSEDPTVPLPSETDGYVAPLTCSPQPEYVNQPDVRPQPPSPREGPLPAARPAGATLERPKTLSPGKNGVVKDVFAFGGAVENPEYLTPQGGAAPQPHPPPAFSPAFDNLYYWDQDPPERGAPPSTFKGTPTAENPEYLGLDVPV

Erk1/2 [7] = assay: Erk1/2 activation in HN5 cells (Western blot); assay type: cell-based, human
AKT [8] = assay: AKT activation in BT474 cells (Western blot); assay type: cell-based, human; conditions: 1 μM, 24 h, with or without EGF
p-Erk1/2 = assay: Clinical trial, p-ERK index in sequential tumor biopsies (quantitative IHC); conditions: patient 361, day 21
AKT [9] = assay: AKT activation in HN5 cells (Western blot); assay type: cell-based, human; conditions: 5 μM, 24 h
HN5 cells [10] = assay: Apoptosis and growth arrest in HN5 cells; assay type: cell-based, human
cyclin D1 = assay: Clinical trial, cyclin D1 in sequential tumor biopsies (quantitative IHC)
Erk1/2 [11] = assay: Erk1/2 activation in BT474 cells (Western blot); assay type: cell-based, human
p-AKT = assay: Clinical trial, p-AKT in sequential tumor biopsies (quantitative IHC); conditions: patient 361, after 21 days of treatment
Erk1/2 [12] = assay: Quantitative IHC of Erk1/2 in tumor xenografts; assay type: in vivo, mice
From the text: DAB (Dako) was used as the chromogen.
Inhibition of erbB2/EGFR p-tyr in turn led to the inhibition of downstream activated, phospho-Erk1/2.

Hb4a cells = assay: Hb4a cell growth, viable cell count by trypan blue exclusion; assay type: cell-based, human; conditions: GW572016 2.5 μM + EGF 50 ng/ml, 72 h
Procedure: Exponentially growing Hb4a cells were cultured in 35 mm petri dishes with serum-free medium containing 1.5% BSA. […] Viable cells were counted after 72 h using trypan blue exclusion.

Erk1/2 [13] = assay: p-Erk1/2 in Hb4a cells (Western blot); assay type: cell-based, human; conditions: 72 h, GW572016 5 μM, Herceptin 10 μg/ml
erbB2 [14] = target: T1, erbB2; assay: Clinical trial, erbB2 p-tyr and total erbB2 in tumor biopsies (IHC); conditions: patient 361, 1200 mg/day
S1 cells = assay: Cell cycle analysis / apoptosis in S1 cells (propidium iodide flow cytometry); conditions: 5 μM, 72 h
Procedure: Cells were harvested and fixed with 70% ethanol in PBS. Cell pellets were then resuspended in 0.5 ml PBS containing propidium iodide (50 μg/ml) and DNase-free RNase (100 μg/ml). Cell cycle analysis was performed using a BD Flow Cytometer (Becton Dickinson, San Jose, Calif., USA).
After 72 h, cell cycle analysis was performed using propidium iodide staining and flow cytometry as described in Materials and methods.

erbB2 [15] = target: T1, erbB2; assay: Quantitative IHC of erbB2 in HN5 and BT474 xenografts; assay type: in vivo, mice; conditions: 200 mg/kg oral once daily
solid tumors = assay: Clinical trial, clinical response (RECIST re-staging at eight weeks); conditions: for Clinical response at 8 weeks: 1200 mg/d
[16] = test system: ERK MAP kinases and PKB/Akt; conditions: SKOV (human ovarian cancer) cells, preincubation; cited from earlier work
activated MAPK and Ki-67 = conditions: humans, phase I trials, normal skin biopsies before and after administration; cited from earlier work
[17] = 72 h, GW572016 500 nM or 1 μM, Herceptin 10 μg/ml

CS(=O)(=O)CCNCc1ccc(-c2ccc3ncnc(Nc4ccc(OCc5cccc(F)c5)c(Cl)c4)c3c2)o1 [GW572016, N-{3-Chloro-4-[(3-fluorobenzyl)oxy]phenyl}-6-[5-({[2-(methylsulfonyl)ethyl]amino}methyl)-2-furyl]4-quinazolinamine]
p-AKT (AKT [1]; 10 mg/kg): little effect
p-AKT (AKT [1]; 30 mg/kg/dose): inhibited p-Erk1/2 and p-AKT
Apoptosis (Rusnak et al.) (HN5 cells [2]): increased only slightly
p-Erk1/2 (Erk1/2 [3]; 10 mg/kg): little effect
p-Erk1/2 (Erk1/2 [3]; 30 mg/kg/dose): inhibited p-Erk1/2 and p-AKT
Baseline phosphorylation of AKT (AKT [4]): inhibits baseline phosphorylation of AKT
Localisation of total Erk1/2 protein (Erk1/2 [5]): almost entirely cytoplasmic
Baseline levels of p-Tyr/erbB2 (erbB2 [6]): inhibited baseline levels of p-Tyr/erbB2, an effect not reversed by EGF
Downstream p-Erk1/2 (Erk1/2 [7]; 5 μM, 24 h): inhibited downstream p-Erk1/2
p-Erk1/2 levels compared with untreated controls (Erk1/2 [7]; [17]): inhibited p-Erk1/2
p-AKT (Ser 473) (AKT [8]): completely inhibited p-AKT
Activated Erk1/2 in re-biopsy of metastatic subcutaneous nodule (p-Erk1/2): completely inhibited; also recorded: completely inactivated
p-AKT (AKT [9]): inhibits baseline phosphorylation of AKT
Growth arrest (HN5 cells [10]): growth arrest was seen
Inhibition of expressed cyclin D1 protein (cyclin D1; patient 361, day 21): 90%
Decrease in cyclin D1 (cyclin D1; patient 372, day 21): 80%
EGF stimulation of p-Erk1/2 (Erk1/2 [11]; 1 μM, 24 h, EGF 50 ng/ml): inhibited EGF stimulation of p-Erk1/2
p-Erk1/2 levels compared with untreated controls (Erk1/2 [11]; [17]): inhibited p-Erk1/2
Inhibition of p-AKT (p-AKT): 33%
Total Erk1/2 protein (IHC) (Erk1/2 [12]): unaffected
p-Erk1/2 levels (IHC) (Erk1/2 [12]): reduced
Growth inhibition with concurrent EGF (Hb4a cells): did not reverse
Baseline p-Erk (Erk1/2 [13]): reduced the baseline amount of p-Tyr/erbB2 and p-Erk, effects not reversed by EGF; also recorded: decreased
Total erbB2 protein (erbB2 [14]): had no effect
erbB2 p-tyr (erbB2 [14]; day 21): did not inhibit
Increase in percentage of apoptotic cells vs vehicle controls (S1 cells): 23 fold
Activated erbB2 (IHC) (erbB2 [15]): inhibition of activated EGFR and erbB2 in a dose-dependent manner
erbB2 total protein (IHC) (erbB2 [15]): neither EGFR nor erbB2 total protein was affected
Clinical response at 8 weeks (solid tumors; patient 361, breast): partial responses
Sequentially biopsied metastatic lymph node (solid tumors; patient 364, 1600 mg/day, at day 21 biopsy): had reduced in size
Clinical response at 8 weeks (solid tumors; patient 372, breast): partial responses
Stable Disease at eight weeks (solid tumors; patients with >70% decrease in pERK index): Stable Disease: 3/5

COc1cc2ncnc(Nc3ccc(F)c(Cl)c3)c2cc1OCCCN1CCOCC1 [ZD1839]
EGF-induced increases in activation of ERK MAP kinases and PKB/Akt [16]: block EGF-induced increases in activation of ERK MAP kinases and PKB/Akt
Expression of activated MAPK and Ki-67 in keratinocytes (activated MAPK and Ki-67): decreased expression of both activated MAPK and Ki-67
